How the values were obtained:
YCCEL1 cells [1] = experiment: Western blot for Zta and total acetylation of histone 3; format: cell-based, human; conditions: FIGS. 1C and 9D (YCCEL1; SNU719)
Protocol: (§1) Protein concentration was determined by the Bradford assay.

AGS-EBV cells [2] = experiment: Zta expression (immunofluorescence and Western blot); format: cell-based, human; conditions: for Zta expression: 5 μM SAHA, 5 μM chidamide, 2.5 μM CXD101
Protocol: as §1

AGS-EBV cells [3] = experiment: RT-qPCR of EBV lytic genes; format: cell-based, human
Source text: RNA was extracted from cells using the RNeasy Mini Kit (Qiagen), following the manufacturer's instructions. Possible contamination with genomic DNA was removed by treatment with DNase I according to the manufacturer's instructions. One μg was used to generate cDNA using the SuperScript Reverse Transcriptase III System following the manufacturer's instructions. QuantiTect SYBR Green PCR Kit was used to perform RT-qPCR using the StepOnePlus real-time PCR system (Applied Biosystems). Reactions were performed in duplicate and in a final volume of 20 μL. Relative mRNA abundances were normalized to endogenous glyceraldehyde 3-phosphate dehydrogenase (GAPDH) mRNA levels. Shown qPCR results were analyzed by the ΔΔCt-method, with the threshold cycles being determined by the Applied Biosystems software.

AGS-EBV cells [4] = experiment: Killing of AGS-EBV cells by Zta-specific TCR-T cells (IncuCyte, Cytotox Red); format: cell-based, human; conditions: for cell death of AGS-EBV cells: HDACi pre-treatment, then primary T cells expressing TCR4, after 8 h of co-culture, compared to DMSO
Protocol: EBV+GC cells were treated with either 2.5 μM of CXD101, 5 μM of chidamide, or 5 μM of SAHA, and DMSO was used as a negative control. Approximately 10×10^5 AGS-EBV cells were plated in […] the day before treatment to allow 50% confluence. The next day, the media was removed, and the cells were treated for 48 hours with the HDACi or DMSO. After 48 hours, the cells were dissociated with trypsin-EDTA and counted. The dissociated cells were plated in the wells of a flat-bottomed 96-well plate and left to adhere for 4-6 hours before the addition of Zta-specific T cells. The IncuCyte S3 Live-Cell analysis system was used to analyze the interactions between the T cells and the HDACi-treated gastric cells over a period of 24 hours. The cells were cultured at an E:T ratio of 10:1. The IncuCyte® Cytotox Red Reagent for counting dead cells was added to each well at the start of incubation. The treated AGS-EBV cells were co-cultured with the HLA-A*02:01-restricted TCR4 primary T cell clones and the HLA-mismatched control clone, TCR9. After 24 hours of incubation, the supernatant was removed from the wells for quantification of cytokines. The ability of the clones to kill the target cells was assessed using the automated IncuCyte analysis software. The Cytotox Red apoptosis marker that was added to the wells at the start of co-culture was taken up by dead cells, and the overlap area of this red fluorescence with larger, very bright GFP cells was measured in μm^2 per replicate well at each set time point.

YCCEL1 cells [5] = format: cell-based, human
[6] = tested on: Burkitt lymphoma cell lines Namalwa, Raji, and Akata; experiment: Western blot for Zta and H3-ac in Burkitt lymphoma cell lines; format: cell-based, human; conditions: naturally infected Burkitt lymphoma cell lines
Protocol: as §1
(§2) CXD101 is currently undergoing clinical trials (Eyre, T. A., et al. (2019). Cancer 125, 99-108.), and chidamide is approved in China by the National Medical Products Administration (NMPA) for treatment of peripheral T-cell lymphoma (Xu, Y., et al. (2017). Drugs of Today; 53.) and breast cancer (Jiang, Z., et al. (2018). Annals of Oncology; 29.). Therefore, chidamide and CXD101 were used to treat naturally-infected Burkitt lymphoma cell lines Namalwa, Raji, and Akata, or the ex vivo infected lymphoblastoid cell line PD-LCL in parallel with YCCEL1 cells. Romidepsin was used to treat the same panel of cells. […] Zta expression level in ex vivo infected B cell line PD-LCL is detectable in DMSO treated cells and it is not affected after HDACi treatment. All HDACis used induced detectable amounts of H3-ac, with cell line-dependent variation (FIG. 1E). To assess the extent of EBV reactivation, mRNA expression of several immediate-early, early, and late lytic genes was analysed (FIG. 9E). […] Up to 5-10% of YCCEL1 and SNU719 cells were positive for late Viral Capsid Antigen (VCA) after chidamide or CXD101 treatment, but not SAHA-treatment. […] Both benzamide- and hydroxymate-based HDACi can induce EBV reactivation in gastric epithelial cancer cells, but benzamide-based HDACis are generally less toxic than hydroxymate-based HDACi.

PD-LCL cells = experiment: Western blot for Zta in lymphoblastoid cell line; format: cell-based, human; conditions: detectable in DMSO treated cells
Protocol: as §1, §2

[7] = tested on: PBMCs from an EBV+ healthy donor; experiment: IFNγ ELISpot of ex vivo EBV-specific CD8+ T cell responses; format: cell-based, human; conditions: PBMCs with pool of EBV epitopes, 12 hours; range of doses
Source text: To be able to effectively “kick” EBV+GC cells into Zta+ abortive EBV reactivation lytic cycle presented us with an opportunity to “kill” the reactivated EBV+ cancer cells by harnessing the host's immune system, Zta specific T cells in particular as Zta is highly immunogenic (Pudney, V. A., et al. (2005). J Exp Med 201, 349-360) and many EBV seropositive individuals have Zta memory T cells. This study was set out to test whether HDACi have any direct impacts on CD8+ T cell responses to EBV viral antigens. Peripheral blood mononuclear cells (PBMCs) from an EBV+ healthy donor were stimulated with a pool of pre-determined EBV epitopes in the presence or absence of HDACi for 12 hours, and ex vivo EBV-specific CD8+ T cell responses were determined by an IFNγ ELISpot assay. […] In parallel, the optimal dose of each HDACi for AGS-EBV to minimize cell toxicity versus their ability to induce Zta expression was determined (FIG. 15A). To provide a proof of principle, whether reactivation of Zta by HDACi could sensitize tumor cells for recognition and killing by Zta-specific CD8+ T cells was subsequently tested. […] The TCR gene was retrovirally transduced into a TCR-negative T cell line (SKW3) or primary human CD8+ T cells for functional readouts, including cytokine production and killing of the tumor cells.

YCCEL1 cells [8] = experiment: High content imaging of Zta-positive cells (immunofluorescence)
Protocol: Cells were seeded on 13 mm coverslips or 96 well-plates 24 h prior to the treatment. After washing with PBS, cells were fixed by the addition of 4% formaldehyde (Life Technologies) in PBS for 10 min, washed three times with PBS, and incubated with 0.1% Triton X-100 for 20 min. After three more washes, coverslips were incubated with Signal Enhancer for 30 min. Following one wash, cells were incubated with the primary antibody diluted in antibody diluent (Dako) with a background reducing agent for 90 min. After washing three times, coverslips were incubated with a secondary antibody solution containing DAPI diluted in antibody diluent for 1 h in the dark. Coverslips were washed three times with PBS and once in purified water before coverslips were mounted on Polysine Microscope Adhesion slides with ProLong Gold Antifade Mountant (Life Technologies). Cells affixed on slides were visualized using a Zeiss LSM 710 laser scanning confocal microscope, while cells on 96 well plates were visualized using the Operetta High Content Screening System (PerkinElmer).
Experiments were run in duplicate. Liquid handling for cell plating, drug treatment, and cell fixation was performed using a JANUS PerkinElmer Automated Workstation (PerkinElmer). […] All other staining steps were performed with a FlexDrop PLUS (PerkinElmer). Cells were visualized using a GE IN Cell Analyzer 6000 (GE Healthcare Life Sciences) with a 10× objective. Percentages of Zta-positive cells within the wells were assessed with a protocol established within the Columbus software (PerkinElmer).
The readout was percentage of cells positive for the immediate-early viral transcription factor Zta, as assessed by immunofluorescence staining and confocal microscopy.

NCC-24 cells = experiment: Western blot for p53 and Zta; format: cell-based, human; conditions: NCC-24, mutant TP53 (G266R and R273H)

With `O=C(CCCCCCC(=O)Nc1ccccc1)NO` [SAHA] the “induction of Zta expression (Western blot)” value (YCCEL1 cells [1]) was “failure”, the “total histone 3 acetylation (H3-ac)” value (YCCEL1 cells [1]) was “induced detectable H3-ac” and the Zta expression (AGS-EBV cells [2]) was “strong activation of Zta expression”. The “activation of lytic genes” value (AGS-EBV cells [3]) was “comparable activation of lytic genes” and the “cell death of AGS-EBV cells” value (AGS-EBV cells [4]) was “dramatic increase in cell death”.

With `Cc1nn(C)cc1CN1CCC(c2ccc(C(=O)Nc3ccccc3N)cc2)CC1` [CXD101] the “toxicity (cell number relative to DMSO)” value (YCCEL1 cells [5]) was “low toxicity”, the Zta expression (AGS-EBV cells [2]) was “strong activation of Zta expression” and the Zta expression [6] was “none of these HDACi induced Zta expression”. For the same molecule, the Zta expression level (PD-LCL cells) was “not affected”, the “activation of lytic genes” value (AGS-EBV cells [3]) was “comparable activation of lytic genes” and the “effect on T cell responses to EBV antigens” value [7] was “little, if any, inhibitory effect”. The “toxicity induced by T cells” value (AGS-EBV cells [4]; AGS-EBV, compared to SAHA (P<0.01)) was “more pronounced”, the “cell death of AGS-EBV cells” value (AGS-EBV cells [4]) was “dramatic increase in cell death” and the “Zta+ cells” value (YCCEL1 cells [8]; 5 μM) was 36.5%. For the same molecule, the “Zta+ cells” value (YCCEL1 cells [8]; 10 μM) was 40.7% and the “Zta expression / EBV reactivation” value (YCCEL1 cells [8]; increasing concentrations (FIG. 1B)) was “strong dose-dependent effect on Zta expression”.

For `COc1ccc(C2=N[C@@H](c3ccc(Cl)cc3)[C@@H](c3ccc(Cl)cc3)N2C(=O)N2CCNC(=O)C2)c(OC(C)C)c1` [nutlin-3a], the “Zta expression (Western blot)” value (AGS-EBV cells [2]; agent alone) was “able to induce high levels of Zta expression” and the Zta expression (NCC-24 cells) was “failed to express Zta”.
